In paper PMC9120017, “Inhibition mechanism of the chloride channel TMEM16A by the pore blocker 1PBC” (Nature Communications, 2022):
Read-outs that look alike come from different tables or passages of the source.

Target: T1, mouse TMEM16A mutant I516A (Mus musculus, UniProt Q8BHY3, I516A)
T1 construct: expressed in transfected cells; host or cells: HEK293T
T1 sequence (Q8BHY3 1-960 I516A): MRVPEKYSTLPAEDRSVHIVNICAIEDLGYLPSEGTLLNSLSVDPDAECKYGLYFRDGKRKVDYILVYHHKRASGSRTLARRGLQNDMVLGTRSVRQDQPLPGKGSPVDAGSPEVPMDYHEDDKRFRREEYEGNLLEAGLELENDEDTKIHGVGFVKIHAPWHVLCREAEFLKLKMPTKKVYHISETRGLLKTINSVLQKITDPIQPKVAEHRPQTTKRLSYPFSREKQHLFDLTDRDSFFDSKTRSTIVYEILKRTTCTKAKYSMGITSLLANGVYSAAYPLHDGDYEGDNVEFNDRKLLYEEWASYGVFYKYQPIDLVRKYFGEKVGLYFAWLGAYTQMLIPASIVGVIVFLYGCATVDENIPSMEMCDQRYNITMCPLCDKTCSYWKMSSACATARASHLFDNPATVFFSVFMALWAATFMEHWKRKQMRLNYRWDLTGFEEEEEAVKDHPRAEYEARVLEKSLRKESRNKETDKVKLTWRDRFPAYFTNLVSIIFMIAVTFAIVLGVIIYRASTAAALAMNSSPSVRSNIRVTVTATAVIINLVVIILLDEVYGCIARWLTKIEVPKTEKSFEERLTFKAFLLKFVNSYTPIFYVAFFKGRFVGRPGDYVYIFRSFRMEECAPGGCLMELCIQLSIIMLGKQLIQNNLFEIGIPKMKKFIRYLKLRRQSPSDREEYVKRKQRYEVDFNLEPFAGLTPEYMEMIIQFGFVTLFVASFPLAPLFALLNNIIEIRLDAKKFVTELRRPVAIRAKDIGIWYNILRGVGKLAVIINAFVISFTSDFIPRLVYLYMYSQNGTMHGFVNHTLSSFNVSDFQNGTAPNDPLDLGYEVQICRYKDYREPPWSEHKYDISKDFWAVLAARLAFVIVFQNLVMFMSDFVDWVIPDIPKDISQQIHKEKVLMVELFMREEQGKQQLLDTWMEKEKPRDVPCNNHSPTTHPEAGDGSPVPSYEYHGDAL
Assay: Inside-out patch recording of 1PBC block, mutant I516A
Type: cell-based
Conditions: for remaining activity at 1 µM: 1PBC 1; for remaining activity at 1 µM / remaining activity at 3 µM / remaining activity at 10 µM / remaining activity at 30 µM / remaining activity at 100 µM: read-out: fraction of unblocked current; for remaining activity at 3 µM: 1PBC 3; for remaining activity at 10 µM: 1PBC 10; for remaining activity at 30 µM: 1PBC 30; for remaining activity at 100 µM: 1PBC 100
Procedure: HEK293T cells (ATCC CRL-1573) were maintained in Dulbecco’s modified Eagle’s medium (DMEM; Sigma-Aldrich) supplemented with 10 U ml^−1 penicillin, 0.1 mg ml^−1 streptomycin (Sigma-Aldrich), 2 mM L-glutamine (Sigma-Aldrich), and 10% FBS (Sigma-Aldrich) in a humidified atmosphere containing 5% CO2 at 37 °C. HEK293S GnTI^− cells (ATCC CRL-3022) were maintained in HyClone HyCell TransFx-H medium (GE Healthcare) supplemented with 10 U ml^−1 penicillin, 0.1 mg ml^−1 streptomycin, 4 mM L-glutamine, 0.15% poloxamer 188 (Sigma-Aldrich), and 1% FBS in an atmosphere containing 5% CO2 at 185 rpm at 37 °C. The ac splice variant of mouse TMEM16A (UniProt ID: Q8BHY3), mouse TMEM16B (UniProt ID: Q8CFW1), or mouse TMEM16F (UniProt ID: Q6P9J9) bearing a 3C cleavage site, a Venus YFP, a Myc tag, and a Streptavidin-binding peptide (SBP) downstream of the open reading frame in a modified pcDNA3.1 vector (Invitrogen) were used as described previously[21],[31]. Mutations were introduced using a modified QuikChange method[58] and were verified by sequencing.
HEK293T cells were transfected with 3–4 μg DNA per 6 cm Petri dish using the calcium phosphate co-precipitation method and were used within 24–96 h after transfection. Recordings were performed on inside-out patches excised from HEK293T cells expressing the construct of interest. Patch pipettes were pulled from borosilicate glass capillaries (O.D. 1.5 mm, I.D. 0.86 mm, Sutter Instrument) and were fire-polished with a microforge (Narishige) before use. Pipette resistance was typically 3–8 MΩ when filled with the recording solutions detailed below. Seal resistance was typically 4 GΩ or higher. Voltage-clamp recordings were made using Axopatch 200B, Digidata 1550, and Clampex 10.7 (Molecular Devices). Analog signals were filtered with the in-built 4-pole Bessel filter at 10 kHz and were digitized at 20 kHz. Solution exchange was achieved using a gravity-fed system through a theta glass pipette mounted on an ultra-fast piezo-driven stepper (Siskiyou). […] All recordings were performed at 20 °C.
A symmetrical ionic condition was used throughout. Stock solution with Ca^2+-EGTA contained 150 mM NaCl, 5.99 mM Ca(OH)2, 5 mM EGTA, and 10 mM HEPES at pH 7.40. Stock solution with EGTA contained 150 mM NaCl, 5 mM EGTA, and 10 mM HEPES at pH 7.40. Free Ca^2+ concentrations were adjusted by mixing the stock solutions at the required ratios calculated using the WEBMAXC program (http://web.stanford.edu/~cpatton/webmaxcS.htm). Patch pipettes were filled with the stock solution with Ca^2+-EGTA, which has a free Ca^2+ concentration of 1 mM. 1PBC (ChemBridge) stock was reconstituted in anhydrous DMSO (Sigma-Aldrich) at 100 mM and stored at −20 °C. Working solutions with 1PBC were prepared by serial dilution. Unless otherwise stated, experiments were performed at a saturating Ca^2+ concentration as shown in Supplementary Table 1 and the primary data were corrected for current rundown as described previously[21],[25].
Concentration-response relations, obtained from the ratio of the I-V plots before and after the application of the blocker, were fitted to the Hill equation,1 I/Imax=1/1+IC50/[blocker]^h where I/Imax is the normalized current responses, IC50 defines the concentration at which inhibition is at its half-maximum, and h is the Hill coefficient.

IC50 (0 mV, 2 µM Ca2+): 5.69 µM
remaining activity at 1 µM (0 mV): 81.6%
remaining activity at 1 µM (20 mV): 79%
remaining activity at 1 µM (40 mV): 76.3%
remaining activity at 1 µM (60 mV): 76.1%
remaining activity at 1 µM (80 mV): 76%
remaining activity at 1 µM (100 mV): 78.2%
remaining activity at 1 µM (120 mV): 80.5%
remaining activity at 1 µM (140 mV): 85%
remaining activity at 1 µM (-20 mV): 84.2%
remaining activity at 1 µM (-40 mV): 86.9%
remaining activity at 1 µM (-60 mV): 90.5%
remaining activity at 1 µM (-80 mV): 93.4%
remaining activity at 1 µM (-100 mV): 94.6%
remaining activity at 1 µM (-120 mV): 96.7%
remaining activity at 1 µM (-140 mV): 99.6%
remaining activity at 3 µM (0 mV): 66.1%
remaining activity at 3 µM (20 mV): 63.1%
remaining activity at 3 µM (40 mV): 60.5%
remaining activity at 3 µM (60 mV): 57.3%
remaining activity at 3 µM (80 mV): 57.5%
remaining activity at 3 µM (100 mV): 58.7%
remaining activity at 3 µM (120 mV): 60.2%
remaining activity at 3 µM (140 mV): 62.8%
remaining activity at 3 µM (-20 mV): 69.1%
remaining activity at 3 µM (-40 mV): 74.1%
remaining activity at 3 µM (-60 mV): 78.3%
remaining activity at 3 µM (-80 mV): 81.5%
remaining activity at 3 µM (-100 mV): 84.3%
remaining activity at 3 µM (-120 mV): 86.9%
remaining activity at 3 µM (-140 mV): 88%
remaining activity at 10 µM (0 mV): 37.2%
remaining activity at 10 µM (20 mV): 33.9%
remaining activity at 10 µM (40 mV): 31.3%
remaining activity at 10 µM (60 mV): 30.4%
remaining activity at 10 µM (80 mV): 30.4%
remaining activity at 10 µM (100 mV): 30.4%
remaining activity at 10 µM (120 mV): 31.9%
remaining activity at 10 µM (140 mV): 35.1%
remaining activity at 10 µM (-20 mV): 40.4%
remaining activity at 10 µM (-40 mV): 43.9%
remaining activity at 10 µM (-60 mV): 48.6%
remaining activity at 10 µM (-80 mV): 50.8%
remaining activity at 10 µM (-100 mV): 55.1%
remaining activity at 10 µM (-120 mV): 58%
remaining activity at 10 µM (-140 mV): 60.3%
remaining activity at 30 µM (0 mV): 16.3%
remaining activity at 30 µM (20 mV): 15%
remaining activity at 30 µM (40 mV): 13.7%
remaining activity at 30 µM (60 mV): 12.5%
remaining activity at 30 µM (80 mV): 12.7%
remaining activity at 30 µM (100 mV): 13.1%
remaining activity at 30 µM (120 mV): 14.6%
remaining activity at 30 µM (140 mV): 16.7%
remaining activity at 30 µM (-20 mV): 17.7%
remaining activity at 30 µM (-40 mV): 19.9%
remaining activity at 30 µM (-60 mV): 22.8%
remaining activity at 30 µM (-80 mV): 25.3%
remaining activity at 30 µM (-100 mV): 28%
remaining activity at 30 µM (-120 mV): 31.5%
remaining activity at 30 µM (-140 mV): 34.4%
remaining activity at 100 µM (0 mV): 6.15%
remaining activity at 100 µM (20 mV): 5.12%
remaining activity at 100 µM (40 mV): 5.16%
remaining activity at 100 µM (60 mV): 5.16%
remaining activity at 100 µM (80 mV): 5.57%
remaining activity at 100 µM (100 mV): 6.35%
remaining activity at 100 µM (120 mV): 6.87%
remaining activity at 100 µM (140 mV): 7.57%
remaining activity at 100 µM (-20 mV): 7.18%
remaining activity at 100 µM (-40 mV): 7.63%
remaining activity at 100 µM (-60 mV): 9.24%
remaining activity at 100 µM (-80 mV): 10.6%
remaining activity at 100 µM (-100 mV): 12.4%
remaining activity at 100 µM (-120 mV): 14.7%
remaining activity at 100 µM (-140 mV): 17.2%
IC50 (20 mV, 2 µM Ca2+): 4.91 µM
IC50 (40 mV, 2 µM Ca2+): 4.32 µM
IC50 (60 mV, 2 µM Ca2+): 3.97 µM
log-fold IC50 (change of mutant vs WT) (80 mV): 0.3402
IC50 (80 mV, 2 µM Ca2+): 4 µM
IC50 (100 mV, 2 µM Ca2+): 4.22 µM
IC50 (120 mV, 2 µM Ca2+): 4.6 µM
IC50 (140 mV, 2 µM Ca2+): 5.41 µM
IC50 (-20 mV, 2 µM Ca2+): 6.57 µM
IC50 (-40 mV, 2 µM Ca2+): 7.87 µM
IC50 (-60 mV, 2 µM Ca2+): 9.65 µM
IC50 (-80 mV, 2 µM Ca2+): 11 µM
IC50 (-100 mV, 2 µM Ca2+): 12.9 µM
IC50 (-120 mV, 2 µM Ca2+): 15 µM
IC50 (-140 mV, 2 µM Ca2+): 17 µM
IC50 (I516A, V 0 mV): 5.69 µM
IC50 (I516A, V 20 mV): 4.91 µM
IC50 (I516A, V 40 mV): 4.32 µM
IC50 (I516A, V 60 mV): 3.97 µM
IC50 (I516A, V 80 mV): 4 µM
IC50 (I516A, V 100 mV): 4.22 µM
IC50 (I516A, V 120 mV): 4.6 µM
IC50 (I516A, V 140 mV): 5.41 µM
IC50 (I516A, V -20 mV): 6.57 µM
IC50 (I516A, V -40 mV): 7.87 µM
IC50 (I516A, V -60 mV): 9.65 µM
IC50 (I516A, V -80 mV): 11 µM
IC50 (I516A, V -100 mV): 12.9 µM
IC50 (I516A, V -120 mV): 15 µM
IC50 (I516A, V -140 mV): 17 µM
Structure (SMILES): N#Cc1c(C(F)(F)F)cc(O)n2c1nc1ccccc12 [1PBC]
